Among the data in patent US20260015357A1, “MODULATORS OF NLRP3 INFLAMMASOME AND RELATED PRODUCTS AND METHODS” (Neumora Therapeutics, Inc., priority 2022, published 2026) are IC50 values, retold here.

Assay [1] has as its target T1, NLRP3 inflammasome (Homo sapiens, UniProt Q96P20).
T1 construct: host or cells: THP1 human acute monocytic leukemia cells, PMA-differentiated, LPS-primed
Nature of the assay: NLRP3 inflammasome activation in LPS-primed, nigericin-activated THP1 macrophages, IL-1β AlphaLISA. In kind it is cell-based. The following applies: PMA-differentiated, 1 hr compound, Nigericin 6.7 uM 3 hrs, IL-1β in supernatant. The procedure: (§1) NLRP3 Inflammasome Activation and Cell Viability Assessment in THP1 Macrophages
(§2) THP1—Human acute monocytic leukemia cells were cultured (ATCC, cat #TIB-202) in Gibco RPMI-1640 medium (ThermoFisher cat #72400054) supplemented with 10% Heat Inactivated FBS at density between 3-8×10^5 viable cells/mi. The cells were then subcultured when the cell concentration reached 8×10^5 cells/mL (every 2-3 days).
(§3) The parameter wells were filled with 50 ul PBS and incubated at 37° C., 5% CO2 for 48 hrs.
(§4) After 48 hrs incubation, the PMA containing media was removed, and changed for 40 ul/well of fresh DMEM, 10% FBS, 1× GlutaMax and incubated at 37° C., 5% CO2 for 24 hrs.
(§5) The following day the cells were primed with LPS (E. coli) (Sigma, cat #L3129) […] in DMEM, 10% FBS, 1× GlutaMax for 3 hrs at 37° C., 5% CO2.
(§6) Following the LPS priming step, the cells were treated with compounds at 10 uM top final concentration, 1:4 dilution, 8 times: (10 uM, 2.5 uM, 0.625 uM, 0.156 uM, 0.039 uM, 0.0097 uM, 0.0024 uM, 0.0006 uM). DMSO was used as a vehicle control, and MCC950 (InvivoGen, cat #inh-mcc) was used at 1 uM as a positive control, and incubated for 1 hrs at 37° C., 5% CO2.
(§7) Following the 1 hr compound incubation, the NLRP3 inflammasome activation step was conducted by treating cells with Nigericin (InvivoGen, cat #tlrl-nig) at 6.7 uM final concentration for 3 hrs at 37° C., 5% CO2.
(§8) Thereafter, 30 ul samples of cells' supernatants were collected for cytokine analysis which was conducted on Hu IL-1β AlphaLISA (Perkin Elmer, cat #AL220C) and Hu IL-6 AlphaLISA (Perkin Elmer, cat #AL220C). The cells' viability was assessed by performing CellTiter-Glo Luminescent Assay (Promega, cat #G7572) according to the manufacturer's protocol.

For assay [2], the system named is IL-6. Nature of the assay: IL-6 in supernatants of LPS-primed, nigericin-treated THP1 macrophages, Hu IL-6 AlphaLISA. It is filed as cell-based. The following applies: Homo sapiens, THP-1, PMA-differentiated, 1 hr compound, Nigericin 6.7 uM 3 hrs, IL-6 in supernatant. The procedure:
as §1, §2, §3, §4, §5, §6, §7, §8
On the technique in general: Alpha assays give light when donor and acceptor beads are brought close together.

T1 sequence (Q96P20 whole entry): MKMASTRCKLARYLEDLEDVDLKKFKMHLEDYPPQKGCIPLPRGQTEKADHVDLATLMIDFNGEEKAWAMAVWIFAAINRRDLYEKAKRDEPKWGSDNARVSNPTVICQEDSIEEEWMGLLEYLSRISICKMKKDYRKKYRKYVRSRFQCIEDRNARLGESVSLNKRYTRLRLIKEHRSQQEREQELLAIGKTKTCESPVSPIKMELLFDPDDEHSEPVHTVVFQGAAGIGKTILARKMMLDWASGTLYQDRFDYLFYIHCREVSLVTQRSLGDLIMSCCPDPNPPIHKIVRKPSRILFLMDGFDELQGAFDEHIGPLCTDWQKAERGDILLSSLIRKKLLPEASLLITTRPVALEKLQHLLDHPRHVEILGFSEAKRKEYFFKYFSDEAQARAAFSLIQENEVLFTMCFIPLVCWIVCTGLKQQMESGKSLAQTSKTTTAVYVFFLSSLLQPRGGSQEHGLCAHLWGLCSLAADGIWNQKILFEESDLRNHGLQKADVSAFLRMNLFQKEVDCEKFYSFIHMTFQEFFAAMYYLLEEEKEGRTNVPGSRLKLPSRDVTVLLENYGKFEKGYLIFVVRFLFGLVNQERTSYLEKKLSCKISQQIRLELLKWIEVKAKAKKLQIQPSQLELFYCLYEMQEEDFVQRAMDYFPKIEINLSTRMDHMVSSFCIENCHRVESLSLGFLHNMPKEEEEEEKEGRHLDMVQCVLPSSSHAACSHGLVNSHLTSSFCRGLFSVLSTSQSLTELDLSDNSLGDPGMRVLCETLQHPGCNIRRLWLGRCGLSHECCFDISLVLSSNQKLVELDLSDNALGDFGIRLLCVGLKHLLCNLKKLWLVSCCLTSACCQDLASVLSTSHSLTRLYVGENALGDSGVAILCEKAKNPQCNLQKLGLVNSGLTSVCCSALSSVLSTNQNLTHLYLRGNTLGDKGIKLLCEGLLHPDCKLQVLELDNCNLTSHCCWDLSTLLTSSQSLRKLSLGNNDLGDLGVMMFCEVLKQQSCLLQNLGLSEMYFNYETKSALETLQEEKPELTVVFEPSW

Take `CN1CCC[C@@H](Nc2nnc(-c3ccc(C(F)(F)F)cc3)c3occc23)C1` [Compound 54]: the values for the half-maximal inhibitory concentration (IC50) in assay [1] and in assay [2] were 100 to 500 nM and 1000 to 5000 nM, respectively.

Turning to `CN1CCC[C@@H](Nc2nnc(-c3ccc(C(F)(F)F)cc3)c3c2OCC3)C1` [Compound 58], the half-maximal inhibitory concentration (IC50) (commonly the concentration needed to halve the response being measured) in assay [1] is 100 to 500 nM; in assay [2], not below 10000 nM.

Consider `CN1CCC[C@@H](Nc2nnc(-c3ccc(C(F)(F)F)cc3)c3c2CCO3)C1` [Compound 59], for which the IC50 in assay [1] and in assay [2] was not below 10000 nM in each case.

Take `CN1CCC[C@@H](Nc2nnc(-c3ccc(C(F)(F)F)cc3)c3ccsc23)C1` [Compound 61]: the IC50 is 10 to 100 nM in assay [1] and not below 10000 nM in assay [2].

On to `CN1CCC[C@@H](Nc2nnc(-c3ccc(C(F)(F)F)cc3)c3sccc23)C1` [Compound 62], for which the values for the IC50 in assay [1] and in assay [2] were 10 to 100 nM and 1000 to 5000 nM, respectively.

On to `CN1CCC[C@@H](Nc2nnc(-c3ccc(C(F)(F)F)cc3)c3cnsc23)C1` [Compound 63, (R)—N-(1-methylpiperidin-3-yl)-4-(4-(trifluoromethyl)phenyl)isothiazolo[4,5-d]pyridazin-7-amine], for which the IC50 was in the range of 10 to 100 nM in assay [1] and 5000 to 10000 nM in assay [2].

For `CN1CCC[C@@H](Nc2nnc(-c3ccc(C(F)(F)F)cc3)c3sncc23)C1` [Compound 64], the IC50 in assay [1] fell in the range of 10 to 100 nM; in assay [2] it was 5000 to 10000 nM.

In the case of `CN1CCC[C@@H](Nc2nnc(-c3ccc(C(F)(F)F)cc3)c3c2CCC3)C1` [Compound 65], the IC50 in assay [1] was less than 10 nM; in assay [2] it was 5000 to 10000 nM.

Regarding `Cc1cc(-c2nnc(N[C@@H]3CCCN(C)C3)c3cc[nH]c23)ccc1C(F)(F)F` [Compound 66], the IC50 in assay [1] and in assay [2] was not below 10000 nM throughout.

For the compound `CN1CCC[C@@H](N(C)c2nnc(-c3ccc(C(F)(F)F)cc3)c3c2ccn3C)C1` [Compound 71], the values for the IC50 in assay [1] and in assay [2] were 1000 to 10000 nM and not below 10000 nM, respectively.

In the case of `CN1CCC[C@@H](N(C)c2nnc(-c3ccc(C(F)(F)F)cc3)c3[nH]ccc23)C1` [Compound 72], the 50% inhibitory concentration (IC50) was 1000 to 10000 nM in assay [1] and not below 10000 nM in assay [2].

As to `Cc1c[nH]c2c(N[C@@H]3CCCN(C)C3)nnc(-c3ccc(F)cc3)c12` [Compound 73], the figures for the IC50 in assay [1] and in assay [2] were 100 to 500 nM and not below 10000 nM, respectively.

For `Cc1c[nH]c2c(-c3ccc(F)cc3)nnc(N[C@@H]3CCCN(C)C3)c12` [Compound 74], the 50% inhibitory concentration (IC50) in assay [1] and in assay [2] was not below 10000 nM in each case.

Regarding `Cc1cc2c(N[C@@H]3CCCN(C)C3)nnc(-c3ccc(C(F)(F)F)cc3)c2[nH]1` [Compound 75], the values for the IC50 in assay [1] and in assay [2] were 1000 to 10000 nM and not below 10000 nM, respectively.

Take `CCN1CCC[C@@H](Nc2nnc(-c3ccc(C(F)(F)F)cc3)c3ccn(C)c23)C1` [Compound 76]: the figures for the IC50 in assay [1] and in assay [2] were less than 10 nM and not above 1000 nM, respectively.

Turning to `CC(C)N1CCC[C@@H](Nc2nnc(-c3ccc(C(F)(F)F)cc3)c3ccn(C)c23)C1` [Compound 77], the results for the half-maximal inhibitory concentration (IC50) in assay [1] and in assay [2] were 500 to 1000 nM and not above 1000 nM, respectively.

With `CN1CCC[C@@H](Nc2nnc(-c3ccc(F)cc3O)c3ccn(C)c23)C1` [Compound 78], the figures for the IC50 in assay [1] and in assay [2] were less than 10 nM and 1000 to 5000 nM, respectively.

`CN1CCC[C@@H](Nc2nnc(-c3ccc(C#N)cc3)c3ccn(C)c23)C1` [Compound 79]: the IC50 was 100 to 500 nM in assay [1] and not below 10000 nM in assay [2].

With `CN1CCC[C@@H](Nc2nnc(-c3ccc(Cl)cc3)c3ccn(C)c23)C1` [Compound 80], the IC50 is less than 10 nM in assay [1] and not below 10000 nM in assay [2].

In the case of `CN1CCC[C@@H](N(C)c2nnc(-c3ccc(F)cc3O)c3ccn(C)c23)C1` [Compound 81], the IC50 in assay [1] fell in the range of 100 to 500 nM; in assay [2], 1000 to 5000 nM.

As to `CN1CCC[C@@H](N(C)c2nnc(-c3ccc(Cl)cc3)c3ccn(C)c23)C1` [Compound 82], the IC50 in assay [1] is 1000 to 10000 nM; in assay [2], 1000 to 5000 nM.

As for `CN1CCCC(Cc2nnc(-c3ccc(C(F)(F)F)cc3)c3cc[nH]c23)C1` (stereo not drawn) [Compound 83], the IC50 fell in the range of 10 to 100 nM in assay [1] and 1000 to 5000 nM in assay [2].

As to `CN1CCC[C@@H](N(C)c2nnc(-c3ccc(C#N)cc3)c3ccn(C)c23)C1` [Compound 84], the IC50 in assay [1] and in assay [2] was not below 10000 nM each time.

As for `CN1CCC[C@@H](Oc2nnc(-c3ccc(C(F)(F)F)cc3)c3ccn(C)c23)C1` [Compound 85], the results for the IC50 in assay [1] and in assay [2] were 100 to 500 nM and 5000 to 10000 nM, respectively.

`CN1CCC[C@@H](Oc2nnc(-c3ccc(F)cc3O)c3ccsc23)C1` [Compound 86]: the IC50 in assay [1] was 100 to 500 nM; in assay [2], not below 10000 nM.

For the compound `CN1CCC[C@@H](Oc2nnc(-c3ccc(C(F)(F)F)cc3)c3ccsc23)C1` [Compound 87], the IC50 in assay [1] is 100 to 500 nM; in assay [2], not below 10000 nM.

Take `CN1CCC[C@@H](Oc2nnc(-c3ccc(C(F)(F)F)cc3)c3ccoc23)C1` [Compound 88]: the figures for the IC50 in assay [1] and in assay [2] were 1000 to 10000 nM and not below 10000 nM, respectively.

As to `CN1CCC[C@@H](Oc2nnc(-c3ccc(F)cc3O)c3ccn(C)c23)C1` [Compound 89], the IC50 was 100 to 500 nM in assay [1] and not below 10000 nM in assay [2].

For `CN1CCC[C@@H](Oc2nnc(-c3ccc(F)cc3O)c3cc[nH]c23)C1` [Compound 90], the IC50 in assay [1] was 100 to 500 nM; in assay [2], not below 10000 nM.

Regarding `CN1CCC[C@@H](Oc2nnc(-c3ccc(F)cc3O)c3ccoc23)C1` [Compound 91], the IC50 in assay [1] was 100 to 500 nM; in assay [2] it was not below 10000 nM.

Turning to `C[N+]1(C)CCC[C@@H](Nc2nnc(-c3ccc(C(F)(F)F)cc3)c3nc[nH]c23)C1` [Compound 92], the concentration for half-maximal inhibition (IC50) in assay [1] and in assay [2] was not below 10000 nM each time.

As for `CN1CCC[C@@H](N(C)c2nnc(-c3ccc(C(F)(F)F)cc3)c3ccoc23)C1` [Compound 93], the IC50 was 1000 to 10000 nM in assay [1] and not below 10000 nM in assay [2].

As to `CN1CCC[C@@H](N(C)c2nnc(-c3ccc(C(F)(F)F)cc3)c3ccsc23)C1` [Compound 95], the values for the IC50 in assay [1] and in assay [2] were 500 to 1000 nM and not below 10000 nM, respectively.

For the compound `CN1CCC[C@@H](N(C)c2nnc(-c3ccc(F)cc3O)c3cc[nH]c23)C1` [Compound 96], the IC50 in assay [1] is 10 to 100 nM; in assay [2] it was not below 10000 nM.

For the compound `Cc1cn(C)c2c(N[C@@H]3CCCN(C)C3)nnc(-c3ccc(C(F)(F)F)cc3)c12` [Compound 97], the IC50 in assay [1] was 100 to 500 nM; in assay [2], not below 10000 nM.

Turning to `CN1CCC[C@@H](N(C)c2nnc(-c3ccc(F)cc3O)c3ccsc23)C1` [Compound 98], the IC50 in assay [1] is 100 to 500 nM; in assay [2], not below 10000 nM.

With `CC(C)N1CCC[C@@H](Nc2nnc(-c3ncc(C#N)cc3O)c3ccn(C)c23)C1` [Compound 99], the IC50 is less than 10 nM in assay [1] and 5000 to 10000 nM in assay [2].

Turning to `CN1CCC[C@@H](Nc2nnc(-c3ccc(C#N)cc3O)c3ccn(C)c23)C1` [Compound 100], the values for the IC50 in assay [1] and in assay [2] were 10 to 100 nM and 5000 to 10000 nM, respectively.

Regarding `Cc1cc2c(-c3ccc(C(F)(F)F)cc3)nnc(N[C@@H]3CCCN(C)C3)c2n1C` [Compound 101], the IC50 in assay [1] was in the range of 10 to 100 nM; in assay [2], 5000 to 10000 nM.

In the case of `CN1CCC[C@@H](N(C)c2nnc(-c3ccc(C#N)cc3O)c3ccn(C)c23)C1` [Compound 102], the IC50 in assay [1] was 500 to 1000 nM; in assay [2] it was not below 10000 nM.

As for `CCN1CCC[C@@H](Nc2nnc(-c3ccc(C#N)cc3O)c3ccn(C)c23)C1` [Compound 103], the half-maximal inhibitory concentration (IC50) is less than 10 nM in assay [1] and 5000 to 10000 nM in assay [2].

For `CN1CCC[C@@H](Nc2nnc(-c3ccc(C#N)cc3O)c3c2cnn3C)C1` [Compound 104], the IC50 in assay [1] was 10 to 100 nM; in assay [2] it was not below 10000 nM.

With `CN1CCC[C@@H](N(C)c2nnc(-c3ccc(C(F)(F)F)cc3)c3ncn(C)c23)C1` [Compound 105], the IC50 in assay [1] and in assay [2] was not below 10000 nM in each case.

As for `CN1CCC[C@@H](N(C)c2nnc(-c3ccc(C(F)(F)F)cc3)c3c2cnn3C)C1` [Compound 106], the IC50 in assay [1] and in assay [2] was not below 10000 nM each time.

Turning to `CN1CCC[C@@H](N(C)c2nnc(-c3ccc(F)cc3O)c3ccoc23)C1` [Compound 107], the IC50 in assay [1] is 100 to 500 nM; in assay [2], not below 10000 nM.

With `Cn1ncc2c(-c3ccc(C(F)(F)F)cc3)nnc(N[C@@H]3CCCN(CC4CC4)C3)c21` [Compound 108], the IC50 in assay [1] is 10 to 100 nM; in assay [2], not below 10000 nM.

`Cn1ncc2c(-c3ccc(C(F)(F)F)cc3)nnc(N[C@@H]3CCCN(C4CC4)C3)c21` [Compound 109]: the IC50 is 10 to 100 nM in assay [1] and not below 10000 nM in assay [2].

For `Cc1cc(C(F)(F)F)ccc1-c1nnc(N[C@@H]2CCCN(C)C2)c2c1cnn2C` [Compound 110], the IC50 is 10 to 100 nM in assay [1] and not below 10000 nM in assay [2].
